Data on one molecule can be found in patent publication US20240148671A1, “METHODS FOR IMPROVING POULTRY HEALTH” (CORNELL UNIVERSITY, priority 2021, published 2024).

Marks after values point to notes of the source that are not given here.

Common to all, as to format: in vivo, Gallus gallus
One experiment deals with hemoglobin (Hb). Briefly: Blood hemoglobin (Hb) after intra-amniotic administration. Here is the method: (§1) The pure resveratrol and pterostilbene were individually diluted in 18 MΩ H2O. The intra-amniotic administration followed the methodology previously described. On the 17th day of embryonic development, the eggs with viable embryos (n=60) were randomly allocated into 6 groups (n=10) with a similar weight frequency distribution. For the intra-amniotic treatment, 1 mL of solution per egg was injected into the amniotic fluid (via candling) with the aid of a 21-gauge needle. After the procedure, the injection sites were sealed with cellophane tape, and the eggs were distributed into six groups: (1) no injection; (2) 18 MΩ H2O; (3) 5% inulin; (4) 5% resveratrol; (5) 5% pterostilbene; and (6) synergistic: 4.75% resveratrol and 0.25% pterostilbene. […] The eggs were equally distributed in each incubator location to reduce possible allocation bias. Upon hatching (21 days), the hatchlings were euthanized by CO2 exposure, and the blood, liver, heart, pectoral muscle, small intestine and cecum were obtained.
Blood was collected using micro-hematocrit heparin-coated capillary tubes (Fisher Scientific, Waltham, MA, USA). The hemoglobin (Hb) concentration was assessed spectrophotometrically using the QuantiChrom™ Hb Assay (DIHB-250, BioAssay Systems, Hayward, CA, USA) and according to specific instructions.

The nature of experiment [1]: Fe and Zn content in the serum and liver samples. Here is the method: as §1
The serum (50 μL) and liver (0.5 g) samples were mixed with 3.0 mL of a 60:40 (v/v) solution of nitric acid (HNO3) and perchloric acid (HClO4) and incubated overnight. After this, the samples were heated for 2 hours at 120° C. and added to 0.25 mL of 40 μg/g yttrium (internal standard), and the block temperature was increased to 145° C. for 2 h and then 190° C. for 10 min. At the end of these procedures, the samples were cooled, diluted to a total volume of 20 mL, mixed and transferred into autosampler tubes for analysis (inductively coupled plasma atomic emission spectrometer) (Thermo, Franklin, MA, USA).

Experiment [2] in a line: Body weight, cecum weight and cecum:body weight ratio. The note with it: intra-amniotic 1 mL/egg on day 17; at hatch (day 21); mean ± SEM, n=8. Here is the method:
as §1

The next experiment has as its system Liver Ferritin. Briefly: Liver ferritin. Conditions: intra-amniotic 1 mL/egg on day 17, at hatch, mean ± SEM, n=5. Here is the method: as §1
The subject of experiment [3] is DMT1 (Divalent metal transporter 1). Briefly: Gene expression (RT-PCR), DMT1. The note with it: at hatch, b173: compared with the other treatments and the controls, b190: comparator not stated, p<0.05. Here is the method:
(§2) The pure resveratrol and pterostilbene were individually diluted in 18 MΩ H2O. The intra-amniotic administration followed the methodology previously described. On the 17th day of embryonic development, the eggs with viable embryos (n=60) were randomly allocated into 6 groups (n=10) with a similar weight frequency distribution. For the intra-amniotic treatment, 1 mL of solution per egg was injected into the amniotic fluid (via candling) with the aid of a 21-gauge needle. […]
(§3) The RNA was isolated as described previously (RNeasy Mini Kit, Qiagen Inc., Valencia, CA, USA), and 30 mg of the duodenal tissue or liver tissue (n =8) was used to extract the total RNA. […] Finally, the RNA was eluted in 50 μL of RNase-free water and quantified by absorbance at 260 and 280 nm.
(§4) RT-PCR was conducted as described. […] The cDNA content was assessed by absorbance at 260 and 280 nm, with an extinction coefficient of 33 (single-stranded DNA). Genomic DNA contamination was evaluated via a real-time RT-PCR assay for the reference gene samples [17,18,30]. […]
(§5) The procedures were performed as previously published. […] The optimal MgCl2 concentration achieved, for each reaction, an amplification plot (lowest cycle product, Cp), the uppermost fluorescence intensity and the steepest amplification slope. […]

Another experiment has as its system SI (Sucrose isomaltase). Briefly: Gene expression (RT-PCR), SI. Conditions: at hatch; b175: compared with the no injection and 5% inulin control groups; b192: comparator not stated; p<0.05. Here is the method: as §2, §3, §4, §5
Experiment [4] has as its system AT1R (angiotensin II receptor type I). Briefly: Gene expression (RT-PCR), AT1R. The note with it: intestinal and heart gene expression (FIG. 2); b176: compared with the no injection control; b192: comparator not stated; b210: between the experimental groups. Here is the method: as §2, §3, §4, §5
Where [5] appears, read: liver, intra-amniotic 1 mL/egg on day 17, at hatch, mean ± SEM, n=8.
The mark [6] stands for this setting: serum, intra-amniotic 1 mL/egg on day 17, at hatch, mean ± SEM, n=8.

As to `Oc1ccc(C=Cc2cc(O)cc(O)c2)cc1` [5% Resveratrol, Resveratrol], the “Hb (g/dL)” value in the experiment on hemoglobin (Hb) (intra-amniotic 1 mL/egg on day 17, blood at hatch (day 21), mean ± SEM) is recorded as 9.71 ± 0.53^a g/dL. Besides, in the experiment with hemoglobin (Hb) (synergistic vs the controls and other treatment groups (p<0.05), 5% resveratrol and 5% pterostilbene vs the control groups), the “Hb concentration, comparison between groups” value is on record as “no difference”. In experiment [1] (compared with the inulin positive control), the “Liver iron concentration vs inulin positive control” value is recorded as “similar”. In addition, in experiment [1] (setting [5]), the “Liver Iron (μg/g)” value is recorded as 46.45 ± 4.71 ^a μg/g and the “Liver Zinc (μg/g)” value is 16.72 ± 1.58 ^b μg/g. Besides, in experiment [1] (setting [6]), the “Serum Iron (μg/g)” value is listed as 2.42 ± 0.23 ^b μg/g and the “Serum Zinc (μg/g)” value is 0.97 ± 0.12 ^bc μg/g. Also, in experiment [2], the “Body Weight Average (g)” value was 47.1 ± 1.4^a g, the “Cecum Weight Average (g)” value was 0.6 ± 0.0^a g and the “Cecum:Body Weight Ratio” value is reported as 0.013 ± 0.001^a. Further, the “Liver Ferritin (A.U.)” value in the experiment with Liver Ferritin was 0.839 ± 0.393^bc A.U. For the same molecule, the “DMT1 relative gene expression” value in experiment [3] (listed as 5% resveratrol) is reported as “lowest”. In addition, in experiment [3] (listed as resveratrol), the “DMT1 relative gene expression” value is “downregulated significantly”. For the same molecule, the SI relative expression entry in the experiment with SI (Sucrose isomaltase) was “down regulated”. The AT1R gene expression entry in experiment [4] is “downregulated”.
